Experimental data published in patent publication US11174291B2, “Silstatin compounds” (Arizona Board of Regents on behalf of Arizona State …, priority 2015, dated 2021).

What was measured:
[1] = system: BXPC-3; assay: NCI sulforhodamine B growth inhibition, pancreas cancer cells; format: cell-based, human; conditions: BXPC3 pancreas, 48 h
Description: (§1) Inhibition of human cancer cell growth was assessed using the National Cancer Institute's standard sulforhodamine B assay as previously described.^19In summary, cells in a 5% fetal bovine serum/RPMI1640 medium were inoculated in 96-well plates and incubated for 24 hrs. Next, serial dilutions of the compounds were added. After 48 h, the plates were fixed with trichloroacetic acid, stained with sulforhodamine B, and read with an automated microplate reader. A growth inhibition of 50% (GI50 or the drug concentration causing a 50% reduction in the net protein increase) was calcd from optical density data with Immunosoft software. Normal cells were treated in identical conditions. Normal human prostate CRL-2221 (PZ—HPV-7) was grown in MEM 10% FBS and normal human breast MCF-10A in MEGM kit.

[2] = system: MCF-7; assay: NCI sulforhodamine B growth inhibition, breast cancer cells; format: cell-based, human; conditions: MCF-7 breast, 48 h
Description: as §1

[3] = system: SF268; assay: NCI sulforhodamine B growth inhibition, CNS cancer cells; format: cell-based, human; conditions: 48 h
Description: as §1

[4] = system: NCI-H460; assay: NCI sulforhodamine B growth inhibition, lung cancer cells; format: cell-based, human; conditions: 48 h
Description: as §1

[5] = system: KM20L2; assay: NCI sulforhodamine B growth inhibition, colon cancer cells; format: cell-based, human; conditions: 48 h
Description: as §1

[6] = system: DU-145; assay: NCI sulforhodamine B growth inhibition, prostate cancer cells; format: cell-based, human; conditions: DU145 prostate, 48 h
Description: as §1

[7] = system: MCF-10A; assay: Sulforhodamine B growth inhibition, normal breast cells; format: cell-based, human; conditions: for Growth inhibition of human normal cell lines GI50: MCF-10A normal breast
Description: as §1

[8] = system: CRL-2221 (PZ—HPV-7); assay: Sulforhodamine B growth inhibition, normal prostate cells; format: cell-based, human; conditions: for Growth inhibition of human normal cell lines GI50: CRL-2221 normal prostate
Description: as §1

[9] = system: mini panel of cancer cell lines; assay: Growth inhibition across the mini panel of cancer cell lines; format: cell-based, human; conditions: for Cancer cell growth inhibition, assessment in words: mini panel of cancer cell lines (Table 1)
Description: as §1
The growth inhibition property of the silstatins and some intermediates were evaluated against a mini panel of cancer cell lines (Table 1).

[10] = amide bond; 36-membered ring; 2 steps

## CC(C)C[C@H]1OC(=O)[C@H](C(C)C)NC(=O)[C@H](C)OC(=O)[C@@H](C(C)C)NC(=O)[C@@H](CC2CCCCC2)OC(=O)[C@H]([C@@H](C)O)NC(=O)[C@H](C)OC(=O)[C@@H](C(C)C)NC(=O)[C@@H](CC(C)C)OC(=O)[C@H](C(C)C)NC(=O)[C@H](C)OC(=O)[C@@H](C(C)C)NC1=O [Silstatin 7 (18a), Cyclo-{Thr-D-Hcha-D-Val-Lac-[Val-D-Hica-D-Val-Lac]2}]
[1]
  Growth inhibition of human cancer cell lines GI50: 3.8 ng/mL
[2]
  Growth inhibition of human cancer cell lines GI50: 1.4 ng/mL
[3]
  Growth inhibition of human cancer cell lines GI50: 3.1 ng/mL
[4]
  Growth inhibition of human cancer cell lines GI50: 3.2 ng/mL
[5]
  Growth inhibition of human cancer cell lines GI50: 1.5 ng/mL
[6]
  Growth inhibition of human cancer cell lines GI50: 3 ng/mL
[7]
  Growth inhibition of human normal cell lines GI50: 4 ng/mL
[8]
  Growth inhibition of human normal cell lines GI50: 4 ng/mL
[9]
  Cancer cell growth inhibition, assessment in words: rescuing the activity

## CC(C)C[C@H]1OC(=O)[C@H](C(C)C)NC(=O)[C@H](C)OC(=O)[C@@H](C(C)C)NC(=O)[C@@H](CC(C)C)OC(=O)[C@H](C(C)C)NC(=O)[C@H](C)OC(=O)[C@@H](C(C)C)NC(=O)[C@@H](CC2CCCCC2)OC(=O)[C@H](Cc2ccc(O)cc2)NC(=O)[C@H](C)OC(=O)[C@@H](C(C)C)NC1=O [Silstatin 8 (18b), Cyclo-{Tyr-D-Hcha-D-Val-Lac-[Val-D-Hica-D-Val-Lac]2}]
[1]
  Growth inhibition of human cancer cell lines GI50: 6 ng/mL
[2]
  Growth inhibition of human cancer cell lines GI50: 1.1 ng/mL
[3]
  Growth inhibition of human cancer cell lines GI50: 3 ng/mL
[4]
  Growth inhibition of human cancer cell lines GI50: 4 ng/mL
[5]
  Growth inhibition of human cancer cell lines GI50: 2.1 ng/mL
[6]
  Growth inhibition of human cancer cell lines GI50: 5.4 ng/mL
[9]
  Cancer cell growth inhibition, assessment in words: rescuing the activity

## CC(C)C[C@H]1OC(=O)[C@H](C(C)C)NC(=O)[C@H](C)OC(=O)[C@@H](C(C)C)NC(=O)[C@@H](CC2CCCCC2)OC(=O)[C@H]([C@@H](C)OC(=O)CCCN(C)C(=O)OCc2ccc(O[C@@H]3O[C@H](C(=O)O)[C@@H](O)[C@H](O)[C@H]3O)c([N+](=O)[O-])c2)NC(=O)[C@H](C)OC(=O)[C@@H](C(C)C)NC(=O)[C@@H](CC(C)C)OC(=O)[C@H](C(C)C)NC(=O)[C@H](C)OC(=O)[C@@H](C(C)C)NC1=O [Silstatin 28]
[1]
  Growth inhibition of human cancer cell lines GI50: 200 ng/mL
[2]
  Growth inhibition of human cancer cell lines GI50: 31 ng/mL
[3]
  Growth inhibition of human cancer cell lines GI50: 50 ng/mL
[4]
  Growth inhibition of human cancer cell lines GI50: 70 ng/mL
[5]
  Growth inhibition of human cancer cell lines GI50: 40 ng/mL
[6]
  Growth inhibition of human cancer cell lines GI50: 130 ng/mL
[7]; MCF-10A
  Decrease of normal cell growth inhibition activity with respect to the parent silstatin 7 (18a): 62.5 times
[7]
  Growth inhibition of human normal cell lines GI50: 250 ng/mL
[8]; CRL-2221
  Decrease of normal cell growth inhibition activity with respect to the parent silstatin 7 (18a): 12.5 times
[8]
  Growth inhibition of human normal cell lines GI50: 50 ng/mL
[9]; across the six cancer cell lines of Table 1
  Decrease of cancer cell growth inhibition activity with respect to the parent silstatin 7: 16-52 times

## Cyclo-[Val-D-Hcha-D-Val-Lac]3
[10]
  ring closure, isolated yield: 23%

## Cyclo-[Val-D-Hica-D-Val-Lac]3
[10]
  ring closure, isolated yield: 28%

## Cyclo-{Thr(tBu)-D-Hcha-D-Val-Lac-[Val-D-Hcha-D-Val-Lac]2}
[10]
  ring closure, isolated yield: 29%

## Cyclo-{Thr(tBu)-D-Hcha-D-Val-Lac-[Val-D-Hica-D-Val-Lac]2}
[10]
  ring closure, isolated yield: 48%

## Cyclo-{Thr(tBu)-D-Hica-D-Val-Lac-[Val-D-Hica-D-Val-Lac]2}
[10]
  ring closure, isolated yield: 33%

## Cyclo-{Tyr(tBu)-D-Hcha-D-Val-Lac-[Val-D-Hcha-D-Val-Lac]2}
[10]
  ring closure, isolated yield: 34%

## Cyclo-{Tyr(tBu)-D-Hcha-D-Val-Lac-[Val-D-Hica-D-Val-Lac]2}
[10]
  ring closure, isolated yield: 22%

## Cyclo-{Tyr(tBu)-D-Hica-D-Val-Lac-[Val-D-Hica-D-Val-Lac]2}
[10]
  ring closure, isolated yield: 11%
